This is an account of results in patent US20240279201A1, “DUAL WNT SIGNALING PATHWAY INHIBITORS AND AMPK ACTIVATORS FOR TREATMENTS OF DISEASE” (priority 2021, published 2024).

“Also recorded” adds a separate entry of the source.

The nature of data set [1]: Cytotoxicity (CC50) during the luciferase gene reporter assay. Type of data set: cell-based. As to conditions: human, HEK293 cells; short treatment duration of the luciferase gene reporter assay. On the technique in general: A reporter such as luciferase makes a cellular process visible.
The nature of the next data set: physchem. On the procedure: (§1) The ADMET and PK properties of YA6060 was determined.
Determination of physiochemical properties. The profiles of six selected analogs is estimated in silico, and selected Axin stabilizers are evaluated in in vitro assays: the aqueous solubility is determined using a multiscreen solubility filter plate (Millipore, Billerica, MA) coupled with LC-MS/MS, as performed for the already synthesized YA6060 analogs; the cell viability assays on selected analogs is measured using HEK293 cells; the intestinal permeability by determining the transport from the apical to the basolateral (A to B) in Caco-2 monolayers; the metabolic stability by incubating the compounds with mouse microsomes and liver tissue S9 fraction and analyzing by LC-MS/MS.

Data set [2] in a line: Pharmacokinetic (PK) studies, oral dose. Conditions: C57/BL6, mouse, blood, 5 mg/kg. On the procedure: as §1
PK/Tox. The four selected compounds from in vitro evaluation above are subjected to PK and toxicity assessment in C57/BL6 mice. […] Compound concentrations is determined by LC/MS/MS. PK analysis is carried out on Phoenix Winnolin using non-compartmental analysis and compartment models. Compound accumulation in major tissues, including liver, kidney, heart, brain and intestine, are quantified. […] For study ii, a half number of mice per group are sacrificed immediately after the 3-week course and the remaining after a 2-week washout period to assess delayed toxicity. In toxicity studies, blood is collected upon euthanasia for liver and renal chemistries and complete blood counts, and major organs harvested and examined macro- and microscopically by veterinarian pathologists. It is expected that an understanding of PK properties, such as bioavailability, AUC, clearance, and toxic effects, such as general tolerance and specific toxicity in the liver, kidney, other major organs, and particularly Wnt-dependent tissues, such as intestine, stomach, and skin is established for these selected compounds.

Data set [3] in a line: Toxicity evaluation in mice (oral gavage). Type of data set: in vivo. The procedure: FIG. 8 illustrates the preliminary toxicity evaluated for YA6060 in major mouse organs. […] 11 weeks C57BL/6 mice were treated for […]. The isolated tissues were stained by Haematoxylin and Eosin (H&E). The images were taken under an amplification of 20×.
Body weight change was measured over time in mice received YA6060. […]

The nature of data set [4]: Toxicity in normal HEK293 cells. Type of data set: cell-based. As to conditions: human. The procedure: YA6060 has an excellent druglike profile. […] The ADMET and PK properties of YA6060 was determined.
Another data set relates to HT29 cells. The data set can be described thus: Viability of HT29 cells. Type of data set: cell-based. As to conditions: Homo sapiens, HT-29, read-out: IC50, cell viability.
In a further data set the test system is AMPK. Description: Western blotting of phosphorylated AMPK in HEK293 cells. Type of data set: cell-based. As to conditions: 100 nM, 24 h. The procedure:
(§2) FIG. 6A-FIG. 6E illustrate the development of Axin stabilizers with dual activities of Wnt inhibition and AMPK activation. […] HEK293 cells were used. B&C: 100 nM compounds, 24 h. FIG. 6D is a table showing the activity profile of YA6060. F=bioavailability; soubility is aqueous solubility.
(§3) A dual-luciferase gene reporter assay was used to test inhibitory activities of new compounds on Wnt signaling. […] Axin is also reported to form a complex with AMPK and its upstream kinase LKB1 (FIG. 12A and FIG. 12B) to facilitate AMPK activation. Therefore, the effects of new compounds on AMPK was examined. […] YA6060 and its analogs had dual activities of potent Wnt signaling inhibition and AMPK activation, which were dependent on the levels of scaffolding protein Axin.

The next data set concerns the target β-catenin (Homo sapiens (Human), UniProt P35222). The data set can be described thus: Western blotting of β-catenin in HEK293 cells. Conditions: 100 nM, 24 h. In kind it is cell-based. On the procedure: as §2, §3
For orientation: A western blot detects proteins with antibodies after separation by electrophoresis.

A short description of the next data set: Hygroscopicity. In kind it is physicochemical. Conditions: HCl salt. From the text:
This Example provides evidence to access the therapeutic potential of simultaneously targeting Wnt signaling and AMPK pathways as novel anti-CRC therapeutic strategy. […] In addition, the chemical structure of YA6060 contains multiple C—H bonds that are liable to P450-mediated oxidations in the liver. Therefore, novel YA6060 analogs with acceptable non-hygroscopicity along with excellent metabolic stability are highly desirable for its further development.
Non-hygroscopic salts of YA6060. YA6060 is an HCl salt with high hygroscopicity. YA6060 can readily absorb moisture from the environment that limits the stability and the further therapeutic application of the compound. Non-hygroscopic salts of YA6060 are generated by screening the anionic of the neutral amino parent YA6060 with a panel of acids that has been reported to form acceptably non-hygroscopic salts. Specific acids include valproic (1), maleic (2), tartaric (3), oxalic (4) and pamoic (5) acids, to get the corresponding salts.

The CC50 is the concentration at which the toxic effect on the cells reaches its halfway point. High values mean lower toxicity to the cells, low ones greater toxicity to the cells. Usually aqueous solubility stands for the dissolved amount per volume that the medium holds. Read a low aqueous solubility as little dissolved substance. One may read the solubility as the dissolved amount per volume that the medium holds. A word on the half-life: it is the time needed for the level to fall by half in the phase considered. A high value points to slow loss. One may read the Cmax as the peak of the concentration-time curve. As usually defined, the Tmax is the time at which the peak concentration occurs. Usually bioavailability stands for dose-corrected exposure relative to a reference, in per cent. A low value points to little systemic uptake. In general, IC50 refers to the concentration that gives 50% inhibition.

In data set [1], `Cc1ccccc1-n1nnc(C(=O)Nc2ccc3cc(CN4CCNCC4)ccc3n2)c1C` [YA6060] had a CC50 greater than 92 µM. Moreover, in “physchem”, the aqueous solubility is recorded as greater than 75 mg/mL; the “increase in aqueous solubility from FX1128 and FX2065” value is reported as “over 10,000 fold”. Besides, the solubility in the data set “physchem” (water, aqueous solubility) is greater than 78 mg/mL. For the same compound, the half-life in data set [2] (oral) was 2.67 h. Further, in [2] (po), the Cmax is 24000 ng/mL, the Tmax was 1.6 h, the bioavailability was determined as 75% and the half-life was determined as 2.67 h. The MTD at 21 days in [3] (C57BL/6, mouse, in vivo, oral, 500 mg/kg, mice, single dose) was greater than 500 mg/kg. The “acute toxicity test (body weight change)” value in data set [3] (mouse, in vivo, po) is listed as “did not exhibit acute toxicity”. For the same compound, the “toxicity / tolerability in mice, histology of major organs” value in data set [3] (oral gavage 500 mg/kg once, 21-day evaluation) is “no obvious toxicity; also recorded: no noticeable toxic effects; also recorded: well tolerated; also recorded: No histological changes”. In addition, the “safety margin over an efficacy dose (0.5 mg/kg) for liver fibrosis” value in data set [3] (single dose of 500 mg/kg) was > 1,000 fold. Besides, the IC50 in data set [4] is greater than 100 µM. For the same compound, the IC50 with HT29 cells stood at 8.6 µM. Also, the “levels of phosphorylated AMPK (p-AMPK)” value in the data set on AMPK was “significantly increased”. Besides, on β-catenin, the “protein level of β-catenin” value is “decreased”. Also, the hygroscopicity entry in “Hygroscopicity” is “highly hygroscopic”.
